Results taken from patent US9265253B2, “Use of macrocyclic picolinamides as fungicides” (DOW AGROSCIENCES LLC, priority 2013, dated 2016).

Experiments:
[1] = tested on: Blumeria graminis f. sp. tritici; Synonym: Erysiphe graminis f. sp. tritici; assay: Wheat Powdery Mildew (ERYSGT) disease control; format: in vivo; settings: 100 ppm, 1 Day Protectant
Procedure: Technical grades of materials were dissolved in acetone, which were then mixed with nine volumes of water containing 110 ppm Triton X-100. The fungicide solutions were applied onto wheat seedlings using an automated booth sprayer to run-off. All sprayed plants were allowed to air dry prior to further handling. All fungicides were evaluated using the aforementioned method for their activity vs. all target diseases. Wheat leaf blotch and brown rust activity were also evaluated using track spray applications, in which case the fungicides were formulated as EC formulations, containing 0.1% Trycol 5941 in the spray solutions. Wheat plants (variety Yuma) were grown from seed in a greenhouse in 50% mineral soil/50% soil-less Metro mix until the first leaf was fully emerged, with 7-10 seedlings per pot. These plants were inoculated with an aqueous spore suspension of Septoria tritici either prior to or after fungicide treatments. […] When disease symptoms were fully expressed on the 1st leaves of untreated plants, infection levels were assessed on a scale of 0 to 100 percent disease severity. Percent disease control was calculated using the ratio of disease severity on treated plants relative to untreated plants. […]

[2] = tested on: Leptosphaeria nodorum; assay: Wheat Glume Blotch (LEPTNO) disease control; format: in vivo; settings: Parastagonospora nodorum, topical, 24 h, 1 Day Protectant, read-out: Disease Control LEPTNO 1 DP
Procedure: Technical grades of materials were dissolved in acetone, which were then mixed with nine volumes of water containing 110 ppm Triton X-100. The fungicide solutions were applied onto wheat seedlings using an automated booth sprayer to run-off. All sprayed plants were allowed to air dry prior to further handling. All fungicides were evaluated using the aforementioned method for their activity vs. all target diseases. Wheat leaf blotch and brown rust activity were also evaluated using track spray applications, in which case the fungicides were formulated as EC formulations, containing 0.1% Trycol 5941 in the spray solutions. Wheat plants (variety Yuma) were grown from seed in a greenhouse in 50% mineral soil/50% soil-less Metro mix until the first leaf was fully emerged, with 7-10 seedlings per pot. These plants were inoculated with an aqueous spore suspension of Septoria tritici either prior to or after fungicide treatments. After inoculation the plants were kept in 100% relative humidity (one day in a dark dew chamber followed by two to three days in a lighted dew chamber at 20° C.) to permit spores to germinate and infect the leaf. The plants were then transferred to a greenhouse set at 20° C. for disease to develop. When disease symptoms were fully expressed on the 1st leaves of untreated plants, infection levels were assessed on a scale of 0 to 100 percent disease severity. Percent disease control was calculated using the ratio of disease severity on treated plants relative to untreated plants. Wheat plants (variety Yuma) were grown from seed in a greenhouse in 50% mineral soil/50% soil-less Metro mix until the first leaf was fully emerged, with 7-10 seedlings per pot. These plants were inoculated with an aqueous spore suspension of Leptosphaeria nodorum 24 hr after fungicide treatments. After inoculation the plants were kept in 100% relative humidity (one day in a dark dew chamber followed by two days in a lighted dew chamber at 20° C.) to permit spores to germinate and infect the leaf. The plants were then transferred to a greenhouse set at 20° C. for disease to develop. Fungicide formulation, application and disease assessment followed the procedures as described in the Example A.

[3] = tested on: Venturia inaequalis; assay: Apple Scab (VENTIN) disease control; format: in vivo; settings: Venturia inaequalis, topical, 24 h, 1 Day Protectant, read-out: Disease Control VENTIN 1 DP
Procedure: Technical grades of materials were dissolved in acetone, which were then mixed with nine volumes of water containing 110 ppm Triton X-100. The fungicide solutions were applied onto wheat seedlings using an automated booth sprayer to run-off. All sprayed plants were allowed to air dry prior to further handling. All fungicides were evaluated using the aforementioned method for their activity vs. all target diseases. Wheat leaf blotch and brown rust activity were also evaluated using track spray applications, in which case the fungicides were formulated as EC formulations, containing 0.1% Trycol 5941 in the spray solutions. Wheat plants (variety Yuma) were grown from seed in a greenhouse in 50% mineral soil/50% soil-less Metro mix until the first leaf was fully emerged, with 7-10 seedlings per pot. These plants were inoculated with an aqueous spore suspension of Septoria tritici either prior to or after fungicide treatments. After inoculation the plants were kept in 100% relative humidity (one day in a dark dew chamber followed by two to three days in a lighted dew chamber at 20° C.) to permit spores to germinate and infect the leaf. The plants were then transferred to a greenhouse set at 20° C. for disease to develop. When disease symptoms were fully expressed on the 1st leaves of untreated plants, infection levels were assessed on a scale of 0 to 100 percent disease severity. Percent disease control was calculated using the ratio of disease severity on treated plants relative to untreated plants. Apple seedlings (variety McIntosh) were grown in soil-less Metro mix, with one plant per pot. Seedlings with two expanding young leaves at the top (older leaves at bottom of the plants were trimmed) were used in the test. Plants were inoculated with a spore suspension of Venturia inaequalis 24 hr after fungicide treatment and kept in a 22° C. dew chamber with 100% RH for 48 hr, and then moved to a greenhouse set at 20° C. for disease to develop. Fungicide formulation, application and disease assessment on the sprayed leaves followed the procedures as described in the Example A.

SMILES	Disease Control ERYSGT 1 DP [1]	pest or weed control at 100 ppm [2]	pest or weed control at 100 ppm [3]	melting point
COc1ccnc(C(=O)N[C@H]2CCC[C@H](Cc3ccccc3)[C@@H](OCC(C)C)[C@H](C)OC2=O)c1OCOC(C)=O [Compound F106]	A (80-100)	80 to 100%	0 to 80%	–
COc1ccnc(C(=O)N[C@H]2CCC[C@H](Cc3ccccc3)[C@@H](OCC(C)C)[C@H](C)OC2=O)c1OCOC(=O)C(C)C [Compound F151]	A (80-100)	80 to 100%	0 to 80%	122 to 124 °C
